Patent publication US20230277534A1 (Plexxikon Inc., priority 2011, published 2023)

Legend:
B-Raf V600E = B-Raf V600E (Homo sapiens (Human), UniProt P15056, V600E); experiment: B-Raf V600E kinase biochemical activity assay (AlphaScreen, biotin-MEK1 substrate); conditions: 100 μM ATP
Procedure, shortened: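 IC50 was derived from AlphaScreen signal (anti-phospho-MEK1/2 antibody with streptavidin donor and Protein A acceptor beads, 3 h) across 8 compound concentrations. The kinase step ran 45 min at room temperature: 0.1 ng B-Raf V600E, 100 nM biotin-MEK1, 100 μM final ATP, pH 7.0 HEPES with MgCl2/MnCl2.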

[1] = test system: IPC-298 human melanoma cell line that expresses activated NRAS; experiment: IPC-298_P-ERK cell activation assay (phosphorylated ERK, AlphaScreen); type: cell-based; conditions: 1 h, IPC-298 cells, P-ERK activation, compound for one hour
Protocol: B9 is a squamous cell carcinoma cell line expressing activated HRAS that was isolated from a DMBA/TPA-induced mouse model of skin carcinogenesis (Stoler, et al. The Journal of Cell Biology, 1993, 122(5), 1103-17). IPC-298 is a human melanoma cell line that expresses activated NRAS (Aubert, et al. International Journal of Cancer, 1993, 54(5), 784-92). To determine whether compounds induce phosphorylated ERK and MEK, cells are plated in a 96-well dish and treated with an 8-point titration of compound for one hour at 37° C. The media is then removed and the cells are incubated with lysis buffer containing protease and phosphatase inhibitors. Phosphorylated ERK and MEK in the resulting lysates is detected using AlphaScreen™ technology. To detect phosphorylated ERK, cell lysates are incubated with streptavidin-coated donor beads, anti-mouse IgG acceptor beads, a biotinylated anti-ERK1/2 rabbit antibody, and a mouse antibody that recognizes ERK1/2 only when it is phosphorylated on Thr202 and Tyr204. The biotinylated ERK1/2 antibody will bind to both the streptavidin-coated donor beads and to ERK1/2 (regardless of its phosphorylation state), and the phospho-ERK1/2 antibody will bind to the acceptor beads and to ERK1/2 that is phosphorylated at Thr202/Tyr204. Excitation of the beads with laser light at 680 nm produces singlet oxygen, which is rapidly quenched unless the beads are in close proximity. When ERK is phosphorylated, both antibodies can bind the same protein, bringing the donor and acceptor beads into close proximity, producing a signal that can be measured at 580 nm. MEK phosphorylation is detected using a similar approach, only with antibodies directed against total MEK1/2 and MEK1/2 that is phosphorylated at Ser217 and Ser221.

[2] = test system: COLO205 colon adenocarcinoma cells (B-Raf V600E mutation); experiment: COLO205 cell growth inhibition (ATPlite); type: cell-based; conditions: Homo sapiens, COLO 205, 72 h, 3 days
Procedure, shortened: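 Cells treated for 3 days at 37 °C, 5% CO2 with an 8-point 1:3 dilution series, top final concentration 10 μM, DMSO control. ATPlite luminescence used as a measure of cell number; IC50 from reading versus concentration.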

B-Raf V600E, sequence (P15056 whole entry V600E): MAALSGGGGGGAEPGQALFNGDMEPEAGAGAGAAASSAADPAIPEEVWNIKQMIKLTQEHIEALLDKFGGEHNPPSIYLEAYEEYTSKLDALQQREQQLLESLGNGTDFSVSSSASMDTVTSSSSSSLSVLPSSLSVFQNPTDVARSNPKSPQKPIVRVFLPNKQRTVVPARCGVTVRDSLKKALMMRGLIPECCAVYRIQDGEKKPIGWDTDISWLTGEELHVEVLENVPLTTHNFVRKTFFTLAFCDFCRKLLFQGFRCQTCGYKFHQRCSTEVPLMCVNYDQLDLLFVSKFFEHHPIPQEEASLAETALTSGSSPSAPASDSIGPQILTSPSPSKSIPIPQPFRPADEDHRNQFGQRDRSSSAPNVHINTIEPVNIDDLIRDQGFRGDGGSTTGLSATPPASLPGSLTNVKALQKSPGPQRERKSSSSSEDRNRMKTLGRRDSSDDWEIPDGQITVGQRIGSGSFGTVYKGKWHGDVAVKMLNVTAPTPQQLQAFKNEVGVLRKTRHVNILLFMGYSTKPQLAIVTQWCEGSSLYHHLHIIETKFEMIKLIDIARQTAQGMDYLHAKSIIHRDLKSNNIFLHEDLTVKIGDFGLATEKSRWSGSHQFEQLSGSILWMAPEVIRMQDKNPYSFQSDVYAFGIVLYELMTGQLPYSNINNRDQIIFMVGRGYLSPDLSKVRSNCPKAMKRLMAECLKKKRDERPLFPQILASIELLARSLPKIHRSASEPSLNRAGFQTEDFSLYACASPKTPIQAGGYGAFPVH

Compound	IC50 (B-Raf V600E) [µM]	EC50 [1] [µM]	IC50 [2] [µM]
Cc1ccc(-c2cnc3[nH]cc(C(=O)c4cccc(NS(=O)(=O)N5CCCC5)c4F)c3c2)cn1 [Compound P-0045, N-[2-fluoro-3-[5-(6-methyl-3-pyridyl)-1H-pyrrolo[2,3-b]pyridine-3-carbonyl]phenyl]pyrrolidine-1-sulfonamide]	< 0.1	> 10	< 1
CN(C)S(=O)(=O)Nc1cccc(C(=O)c2c[nH]c3ncc(-c4ccc(C5(C#N)CC5)cc4)cc23)c1F [Compound P-0055, 5-[4-(1-cyanocyclopropyl)phenyl]-3-[3-(dimethylsulfamoylamino)-2-fluoro-benzoyl]-1H-pyrrolo[2,3-b]pyridine]	< 0.1	> 10	< 1
CC(C)(O)c1nc(-c2cnc3[nH]cc(C(=O)c4c(F)ccc(NS(=O)(=O)N5CCCC5)c4F)c3c2)cs1 [Compound P-0265, N-[2,4-difluoro-3-[5-[2-(1-hydroxy-1-methyl-ethyl)thiazol-4-yl]-1H-pyrrolo[2,3-b]pyridine-3-carbonyl]phenyl]pyrrolidine-1-sulfonamide]	< 0.1	> 2	< 1
CCN(C)S(=O)(=O)Nc1cccc(C(=O)c2c[nH]c3ncc(-c4cnc(C(C)C)nc4)cc23)c1F [Compound P-0057, 3-[3-[[ethyl(methyl)sulfamoyl]amino]-2-fluoro-benzoyl]-5-(2-isopropylpyrimidin-5-yl)-1H-pyrrolo[2,3-b]pyridine]	< 0.1	> 10	< 1
CCN(C)S(=O)(=O)Nc1cccc(C(=O)c2c[nH]c3ncc(Br)cc23)c1F [Compound P-0038, 5-bromo-3-[3-[[ethyl(methyl)sulfamoyl]amino]-2-fluoro-benzoyl]-1H-pyrrolo[2,3-b]pyridine]	< 0.1	> 10	> 1
O=C(c1c(F)ccc(NS(=O)(=O)N2CCCC2)c1F)c1c[nH]c2ncc(-c3ccnc(C4CC4)c3)cc12 [Compound P-0295, N-[3-[5-(2-cyclopropyl-4-pyridyl)-1H-pyrrolo[2,3-b]pyridine-3-carbonyl]-2,4-difluoro-phenyl]pyrrolidine-1-sulfonamide]	< 0.1	> 2	< 1
CCCN(C)S(=O)(=O)Nc1cccc(C(=O)c2c[nH]c3ncc(-c4cnc(OC)nc4)cc23)c1F [Compound P-0040, 3-[2-fluoro-3-[[methyl(propyl)sulfamoyl]amino]benzoyl]-5-(2-methoxypyrimidin-5-yl)-1H-pyrrolo[2,3-b]pyridine]	< 0.1	> 10	< 1
CCN(C)S(=O)(=O)Nc1ccc(F)c(C(=O)c2c[nH]c3ncc(C#N)cc23)c1F [Compound P-0017, 5-cyano-3-[3-[[ethyl(methyl)sulfamoyl]amino]-2,6-difluoro-benzoyl]-1H-pyrrolo[2,3-b]pyridine]	< 0.1	> 10	> 1
COc1cc(-c2cnc3[nH]cc(C(=O)c4cccc(NS(=O)(=O)N5CCCC5)c4F)c3c2)ccc1C#N [Compound P-0049, N-[3-[5-(4-cyano-3-methoxy-phenyl)-1H-pyrrolo[2,3-b]pyridine-3-carbonyl]-2-fluoro-phenyl]pyrrolidine-1-sulfonamide]	< 0.1	> 4	< 1
CN(C)S(=O)(=O)Nc1cccc(C(=O)c2c[nH]c3ncc(-c4ccc(C(F)(F)F)nc4)cc23)c1F [Compound P-0053, 3-[3-(dimethylsulfamoylamino)-2-fluoro-benzoyl]-5-[6-(trifluoromethyl)-3-pyridyl]-1H-pyrrolo[2,3-b]pyridine]	< 0.1	> 10	< 1
Cc1cnc2[nH]cc(C(=O)c3cccc(NS(=O)(=O)N4CCCC4)c3F)c2c1 [Compound P-0023, N-[2-fluoro-3-(5-methyl-1H-pyrrolo[2,3-b]pyridine-3-carbonyl)phenyl]pyrrolidine-1-sulfonamide]	< 0.1	> 10	> 1
CCN(C)S(=O)(=O)Nc1cccc(C(=O)c2c[nH]c3ncc(-c4cnc(C5CC5)nc4)cc23)c1F [Compound P-0058, 5-(2-cyclopropylpyrimidin-5-yl)-3-[3-[[ethyl(methyl)sulfamoyl]amino]-2-fluoro-benzoyl]-1H-pyrrolo[2,3-b]pyridine]	< 0.1	> 10	< 1

The remaining lines, values ahead:

IC50 (B-Raf V600E) [µM]	EC50 [1] [µM]	IC50 [2] [µM]	Compound
< 0.1	> 10	< 1	CCN(C)S(=O)(=O)Nc1cccc(C(=O)c2c[nH]c3ncc(-c4ccc(C(F)(F)F)nc4)cc23)c1F [Compound P-0059, 3-[3-[[ethyl(methyl)sulfamoyl]amino]-2-fluoro-benzoyl]-5-[6-(trifluoromethyl)-3-pyridyl]-1H-pyrrolo[2,3-b]pyridine]
< 0.1	> 1	> 1	COc1cc(-c2cnc3[nH]cc(C(=O)c4cccc(NS(=O)(=O)N(C)C)c4F)c3c2)ccc1C#N [Compound P-0054, 5-(4-cyano-3-methoxy-phenyl)-3-[3-(dimethylsulfamoylamino)-2-fluoro-benzoyl]-1H-pyrrolo[2,3-b]pyridine]
< 0.1	> 10	< 1	O=C(c1cccc(NS(=O)(=O)N2CCCC2)c1F)c1c[nH]c2ncc(-c3ccccc3)cc12 [Compound P-0063, N-[2-fluoro-3-(5-phenyl-1H-pyrrolo[2,3-b]pyridine-3-carbonyl)phenyl]pyrrolidine-1-sulfonamide]
< 0.1	> 2	> 1	CNS(=O)(=O)Nc1ccc(F)c(C(=O)c2c[nH]c3ncc(-c4cnc(C5CC5)nc4)cc23)c1F [Compound P-0334, [5-(2-cyclopropylpyrimidin-5-yl)-1H-pyrrolo[2,3-b]pyridin-3-yl]-[2,6-difluoro-3-(methylsulfamoylamino)phenyl]methanone]
< 0.1	> 10	< 1	O=C(c1cccc(NS(=O)(=O)N2CCCC2)c1F)c1c[nH]c2ncc(-c3cnc(C4CC4)nc3)cc12 [Compound P-0048, N-[3-[5-(2-cyclopropylpyrimidin-5-yl)-1H-pyrrolo[2,3-b]pyridine-3-carbonyl]-2-fluoro-phenyl]pyrrolidine-1-sulfonamide]
< 0.1	> 2	< 1	CCN(C)S(=O)(=O)Nc1cccc(C(=O)c2c[nH]c3ncc(-c4ccc(C#N)c(OC)c4)cc23)c1F [Compound P-0060, 5-(4-cyano-3-methoxy-phenyl)-3-[3-[[ethyl(methyl)sulfamoyl]amino]-2-fluoro-benzoyl]-1H-pyrrolo[2,3-b]pyridine]
< 0.1	> 10	< 1	CC(C)c1ncc(-c2cnc3[nH]cc(C(=O)c4cccc(NS(=O)(=O)N5CCCC5)c4F)c3c2)cn1 [Compound P-0047, N-[2-fluoro-3-[5-(2-isopropylpyrimidin-5-yl)-1H-pyrrolo[2,3-b]pyridine-3-carbonyl]phenyl]pyrrolidine-1-sulfonamide]
< 0.1	> 10	< 1	CCN(C)S(=O)(=O)Nc1cccc(C(=O)c2c[nH]c3ncc(-c4cnc(C)nc4)cc23)c1F [Compound P-0056, 3-[3-[[ethyl(methyl)sulfamoyl]amino]-2-fluoro-benzoyl]-5-(2-methylpyrimidin-5-yl)-1H-pyrrolo[2,3-b]pyridine]
< 0.1	> 10	< 1	CC(C)c1ncc(-c2cnc3[nH]cc(C(=O)c4cccc(NS(=O)(=O)N(C)C)c4F)c3c2)cn1 [Compound P-0051, 3-[3-(dimethylsulfamoylamino)-2-fluoro-benzoyl]-5-(2-isopropylpyrimidin-5-yl)-1H-pyrrolo[2,3-b]pyridine]
< 0.1	> 10	< 1	CN(C)S(=O)(=O)Nc1cccc(C(=O)c2c[nH]c3ncc(-c4cnc(C5CC5)nc4)cc23)c1F [Compound P-0052, 5-(2-cyclopropylpyrimidin-5-yl)-3-[3-(dimethylsulfamoylamino)-2-fluoro-benzoyl]-1H-pyrrolo[2,3-b]pyridine]
< 0.1	> 10	< 1	CN(C)S(=O)(=O)Nc1cccc(C(=O)c2c[nH]c3ncc(-c4cnc(NC5CC5)nc4)cc23)c1F [Compound P-0064, 5-[2-(cyclopropylamino)pyrimidin-5-yl]-3-[3-(dimethylsulfamoylamino)-2-fluoro-benzoyl]-1H-pyrrolo[2,3-b]pyridine]
